Key:
[1] = target: AM2-S31N mutant of the A/M2 proteins (Influenza A virus, UniProt P0DOF5, S31N); format: biochemical; conditions: pH 5.5
A/WSN/33 (H1N1) virus = format: cell-based, influenza A virus

## CC(C)[Si](c1ccc(CNC23CC4CC(CC(O)(C4)C2)C3)cc1)(C(C)C)C(C)C [Compound 5f]
[1]
  % AM2-S31N inhibition: inactive
A/WSN/33 (H1N1) virus
  A/WSN/33 EC50: inactive
